Test results as given in article PMC7782168, “Synthesis, telomerase inhibitory and anticancer activity of new 2-phenyl-4H-chromone derivatives containing 1,3,4-oxadiazole moiety” (Journal of Enzyme Inhibition and Medicinal Chemistry, 2020).

How the values were obtained:
telomerase = target: T1, telomerase (Homo sapiens, UniProt O14746); experiment: Telomerase activity assay using MGC-803 cells extract; type: biochemical; details: mean ± SD
T1 construct: assayed for telomerase activity using MGC-803 cells extract; endogenous in cells; host or cells: MGC-803 cell extract
T1 sequence (O14746 whole entry): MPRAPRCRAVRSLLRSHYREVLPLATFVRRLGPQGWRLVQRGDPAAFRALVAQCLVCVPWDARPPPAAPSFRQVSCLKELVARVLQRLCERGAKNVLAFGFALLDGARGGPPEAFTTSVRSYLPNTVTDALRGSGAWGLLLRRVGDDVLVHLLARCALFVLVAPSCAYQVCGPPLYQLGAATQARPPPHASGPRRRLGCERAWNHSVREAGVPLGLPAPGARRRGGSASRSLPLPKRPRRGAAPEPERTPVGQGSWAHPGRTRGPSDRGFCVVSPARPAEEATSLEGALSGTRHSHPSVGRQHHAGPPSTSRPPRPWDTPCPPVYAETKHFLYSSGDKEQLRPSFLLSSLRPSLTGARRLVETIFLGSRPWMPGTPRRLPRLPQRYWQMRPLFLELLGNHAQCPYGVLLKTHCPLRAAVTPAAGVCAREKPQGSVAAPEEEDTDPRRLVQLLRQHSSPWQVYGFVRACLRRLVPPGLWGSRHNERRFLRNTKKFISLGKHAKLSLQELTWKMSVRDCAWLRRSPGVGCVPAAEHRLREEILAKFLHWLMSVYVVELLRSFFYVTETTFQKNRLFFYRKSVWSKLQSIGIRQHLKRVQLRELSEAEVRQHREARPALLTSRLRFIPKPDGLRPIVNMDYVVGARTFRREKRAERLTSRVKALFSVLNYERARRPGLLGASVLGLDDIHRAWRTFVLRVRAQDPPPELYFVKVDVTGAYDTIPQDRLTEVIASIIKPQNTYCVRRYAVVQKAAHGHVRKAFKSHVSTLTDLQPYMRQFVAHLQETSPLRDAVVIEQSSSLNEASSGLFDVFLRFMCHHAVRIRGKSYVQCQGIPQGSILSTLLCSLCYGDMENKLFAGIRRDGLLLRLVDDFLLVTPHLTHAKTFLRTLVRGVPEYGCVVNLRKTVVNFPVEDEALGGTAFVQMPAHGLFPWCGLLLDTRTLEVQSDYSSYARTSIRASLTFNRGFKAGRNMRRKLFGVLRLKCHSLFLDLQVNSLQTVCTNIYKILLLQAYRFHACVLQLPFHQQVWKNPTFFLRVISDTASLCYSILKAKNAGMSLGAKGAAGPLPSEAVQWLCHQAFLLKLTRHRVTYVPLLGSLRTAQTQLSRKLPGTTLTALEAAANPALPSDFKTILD
T1 sequence (O60832 2-514 partner limits assumed): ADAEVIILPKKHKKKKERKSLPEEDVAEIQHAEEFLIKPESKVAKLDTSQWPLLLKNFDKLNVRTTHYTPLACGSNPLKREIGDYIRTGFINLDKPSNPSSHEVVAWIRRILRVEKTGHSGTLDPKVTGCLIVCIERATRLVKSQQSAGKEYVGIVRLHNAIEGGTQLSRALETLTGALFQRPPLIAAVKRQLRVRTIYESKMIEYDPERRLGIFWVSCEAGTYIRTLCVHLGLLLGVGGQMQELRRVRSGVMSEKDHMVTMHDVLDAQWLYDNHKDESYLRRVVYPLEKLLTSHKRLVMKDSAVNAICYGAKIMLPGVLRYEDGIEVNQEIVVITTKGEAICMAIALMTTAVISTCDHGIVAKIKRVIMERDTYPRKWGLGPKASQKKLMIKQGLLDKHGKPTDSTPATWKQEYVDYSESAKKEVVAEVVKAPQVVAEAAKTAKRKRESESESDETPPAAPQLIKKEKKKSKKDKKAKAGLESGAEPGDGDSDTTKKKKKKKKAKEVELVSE
T1 sequence (Q9NPE3 whole entry partner): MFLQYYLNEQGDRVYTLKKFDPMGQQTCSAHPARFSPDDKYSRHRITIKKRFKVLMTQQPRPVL
T1 sequence (Q9NX24 whole entry partner): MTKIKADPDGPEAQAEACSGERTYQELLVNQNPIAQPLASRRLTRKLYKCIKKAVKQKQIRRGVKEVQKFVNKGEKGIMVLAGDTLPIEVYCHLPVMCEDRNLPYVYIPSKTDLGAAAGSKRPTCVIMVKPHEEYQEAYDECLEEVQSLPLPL
T1 sequence (Q9NY12 whole entry partner): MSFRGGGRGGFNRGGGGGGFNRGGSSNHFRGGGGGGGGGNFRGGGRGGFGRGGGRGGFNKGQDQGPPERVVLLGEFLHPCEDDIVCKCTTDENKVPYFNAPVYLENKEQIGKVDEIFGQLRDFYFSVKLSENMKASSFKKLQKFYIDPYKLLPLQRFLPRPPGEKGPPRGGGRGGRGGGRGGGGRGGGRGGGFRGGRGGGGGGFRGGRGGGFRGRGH

[1] = tested on: A375 (human melanoma cell); experiment: In vitro anticancer (antiproliferative) MTT assay, A375; type: cell-based
Description: (§1) A375, MDA-MB-231, MGC-803, SMMC-7721, SGC-7901 and L-02 cell lines were cultured in DMEM medium supplemented with 10% (V/V) heat-inactivated fetal bovine serum (FBS) (Biological Industries, Israel) along with 100 U/mL penicillin and […] streptomycin (Beyotime, China). Cells were grown in a humidified 5% CO2 atmosphere at 37 °C and maintained in a logarithmic growth phase for all experiments.
(§2) 2.5. Anticancer assay[23]

[2] = tested on: MDA-MB-231 (human breast cancer cell); experiment: In vitro anticancer (antiproliferative) MTT assay, MDA-MB-231; type: cell-based
Description: as §1, §2

[3] = tested on: MGC-803 (human gastric cancer cell); experiment: In vitro anticancer (antiproliferative) MTT assay, MGC-803; type: cell-based
Description: as §1, §2

[4] = tested on: SMMC-7721 (human hepatoma cell); experiment: In vitro anticancer (antiproliferative) MTT assay, SMMC-7721; type: cell-based
Description: as §1, §2

[5] = tested on: SGC-7901 (human gastric cancer cell); experiment: In vitro anticancer (antiproliferative) MTT assay, SGC-7901; type: cell-based
Description: as §1, §2

[6] = tested on: human normal liver cell (L-02); experiment: Toxicity against human normal liver cells, MTT assay; type: cell-based; details: triplicate
Description: as §1, §2
In order to determine the selective cytotoxicity of selected compounds, we subsequently conducted a proliferative inhibition assay with human normal liver cell (L-02). […] Therefore, in combination with the above points, it is quite meaningful to further explore the mechanisms of this compound.

[7] = Homo sapiens, A-375, mean ± SD of three experiments in triplicate
[8] = Homo sapiens, MDA-MB-231, mean ± SD of three experiments in triplicate
[9] = Homo sapiens, MGC-803, mean ± SD of three experiments in triplicate
[10] = Homo sapiens, SMMC-7721, mean ± SD of three experiments in triplicate
[11] = Homo sapiens, SGC-7901, mean ± SD of three experiments in triplicate
[12] = mean ± SD of three experiments in triplicate

Row | IC50 (telomerase) | melting point | SMILES | other results
1 | > 60 µM | 226 to 228 °C | COc1cc(OC)c2c(=O)c(OCC(=O)Nc3nnc(-c4ccccc4Br)o3)c(-c3ccc(OC)c(OC)c3)oc2c1 [B10, N-(5–(2-bromophenyl)-1,3,4-oxadiazol-2-yl)-2–(2-(3,4-dimethoxyphenyl)-5,7-dimethoxy-4-oxo-4H-chromen-3-yloxy)acetamide] | –
2 | 2.75 ± 0.19 µM | 240 to 242 °C | COc1cc(OC)c2c(=O)c(OCC(=O)Nc3nnc(-c4ccco4)o3)c(-c3cc(OC)c(OC)c(OC)c3)oc2c1 [A31, 2–(5,7-dimethoxy-4-oxo-2–(3,4,5-trimethoxyphenyl)-4H-chromen-3-yloxy)-N-(5-(furan-2-yl)-1,3,4-oxadiazol-2-yl)acetamide] | –
3 | 1.21 ± 0.29 µM | 230 to 232 °C | COc1cc(OC)c2c(=O)c(OCC(=O)Nc3nnc(-c4ccc(OC(F)(F)F)cc4)o3)c(-c3cc(OC)c(OC)c(OC)c3)oc2c1 [A19, 2–(5,7-dimethoxy-4-oxo-2–(3,4,5-trimethoxyphenyl)-4H-chromen-3-yloxy)-N-(5–(4-(trifluoromethoxy)phenyl)-1,3,4-oxadiazol-2-yl)acetamide] | –
4 | 21 ± 4.09 µM | 199 to 201 °C | COc1cc(OC)c2c(=O)c(OCC(=O)Nc3nnc(-c4ccccc4Br)o3)c(-c3cc(OC)c(OC)c(OC)c3)oc2c1 [A10, N-(5–(2-bromophenyl)-1,3,4-oxadiazol-2-yl)-2–(5,7-dimethoxy-4-oxo-2–(3,4,5-trimethoxyphenyl)-4H-chromen-3-yloxy)acetamide] | –
5 | 1.38 ± 0.25 µM | 236 to 238 °C | COc1cc(OC)c2c(=O)c(OCC(=O)Nc3nnc(-c4ccc(F)cc4)o3)c(-c3ccc(OC)c(OC)c3)oc2c1 [B2, 2–(2-(3,4-dimethoxyphenyl)-5,7-dimethoxy-4-oxo-4H-chromen-3-yloxy)-N-(5–(4-fluorophenyl)-1,3,4-oxadiazol-2-yl)acetamide] | –
6 | 4.29 ± 0.83 µM | 212 to 214 °C | COc1cc(OC)c2c(=O)c(OCC(=O)Nc3nnc(-c4ccc(Br)cc4)o3)c(-c3ccc(OC)c(OC)c3)oc2c1 [B8, N-(5–(4-bromophenyl)-1,3,4-oxadiazol-2-yl)-2–(2-(3,4-dimethoxyphenyl)-5,7-dimethoxy-4-oxo-4H-chromen-3-yloxy)acetamide] | –
7 | 3.75 ± 0.39 µM | 238 to 240 °C | COc1cc(OC)c2c(=O)c(OCC(=O)Nc3nnc(-c4cccs4)o3)c(-c3ccc(OC)c(OC)c3)oc2c1 [B32, 2–(2-(3,4-dimethoxyphenyl)-5,7-dimethoxy-4-oxo-4H-chromen-3-yloxy)-N-(5-(thiophen-2-yl)-1,3,4-oxadiazol-2-yl)acetamide] | –
8 | 14.3 ± 1.33 µM | 206 to 208 °C | COc1ccc(-c2nnc(NC(=O)COc3c(-c4ccc(OC)c(OC)c4)oc4cc(OC)cc(OC)c4c3=O)o2)cc1 [B22, 2–(2-(3,4-dimethoxyphenyl)-5,7-dimethoxy-4-oxo-4H-chromen-3-yloxy)-N-(5–(4-methoxyphenyl)-1,3,4-oxadiazol-2-yl)acetamide] | –
9 | 9.22 ± 1.01 µM | 226 to 228 °C | COc1cc(OC)c2c(=O)c(OCC(=O)Nc3nnc(-c4ccccc4OC(F)(F)F)o3)c(-c3ccc(OC)c(OC)c3)oc2c1 [B21, 2–(2-(3,4-dimethoxyphenyl)-5,7-dimethoxy-4-oxo-4H-chromen-3-yloxy)-N-(5–(2-(trifluoromethoxy)phenyl)-1,3,4-oxadiazol-2-yl)acetamide] | –
10 | 2.57 ± 0.5 µM | 217 to 219 °C | COc1cc(OC)c2c(=O)c(OCC(=O)Nc3nnc(-c4cccc(F)c4)o3)c(-c3cc(OC)c(OC)c(OC)c3)oc2c1 [A3, 2–(5,7-dimethoxy-4-oxo-2–(3,4,5-trimethoxyphenyl)-4H-chromen-3-yloxy)-N-(5–(3-fluorophenyl)-1,3,4-oxadiazol-2-yl)acetamide] | –

Further lines, the molecule ahead of its results:

Row | SMILES | IC50 (telomerase) | melting point | other results
11 | COc1cc(OC)c2c(=O)c(OCC(=O)Nc3nnc(-c4ccc(OC)c(OC)c4)o3)c(-c3cc(OC)c(OC)c(OC)c3)oc2c1 [A27, 2–(5,7-dimethoxy-4-oxo-2–(3,4,5-trimethoxyphenyl)-4H-chromen-3-yloxy)-N-(5–(3,4-dimethoxyphenyl)-1,3,4-oxadiazol-2-yl)acetamide] | 0.32 ± 0.07 µM | 220 to 222 °C | IC50 [1, 7]: > 100 µM; IC50 [2, 8]: > 100 µM; IC50 [3, 9]: > 100 µM; IC50 [4, 10]: > 100 µM; IC50 [5, 11]: > 100 µM; IC50 [6]: 1.38 ± 0.21 mM
12 | COc1cccc2c1C(=O)c1c(O)c3c(c(O)c1C2=O)C[C@@](O)(C(=O)CO)C[C@@H]3O[C@H]1C[C@H](N)[C@H](O)[C@H](C)O1 [ADM, Adriamycin, reference compound] | – | – | IC50 [1, 7]: 0.58 ± 0.2 µM; IC50 [2, 8]: 0.51 ± 0.12 µM; IC50 [3, 9]: 0.42 ± 0.08 µM; IC50 [4, 10]: 0.79 ± 0.13 µM; IC50 [5, 11]: 0.82 ± 0.43 µM
13 | COc1cc(OC)c2c(=O)c(OCC(=O)Nc3nnc(-c4ccc5c(c4)OCCO5)o3)c(-c3ccc(OC)c(OC)c3)oc2c1 [B29, N-(5–(2,3-dihydrobenzo[b][1, 4]dioxin-6-yl)-1,3,4-oxadiazol-2-yl)-2–(2-(3,4-dimethoxyphenyl)-5,7-dimethoxy-4-oxo-4H-chromen-3-yloxy)acetamide] | 2.98 ± 0.27 µM | 228 to 230 °C | –
14 | COc1cccc(-c2nnc(NC(=O)COc3c(-c4cc(OC)c(OC)c(OC)c4)oc4cc(OC)cc(OC)c4c3=O)o2)c1 [A23, 2–(5,7-dimethoxy-4-oxo-2–(3,4,5-trimethoxyphenyl)-4H-chromen-3-yloxy)-N-(5–(3-methoxyphenyl)-1,3,4-oxadiazol-2-yl)acetamide] | 1.9 ± 0.42 µM | 208 to 210 °C | –
15 | COc1cc(OC)c2c(=O)c(OCC(=O)Nc3nnc(-c4cccc(Cl)c4)o3)c(-c3ccc(OC)c(OC)c3)oc2c1 [B6, N-(5–(3-chlorophenyl)-1,3,4-oxadiazol-2-yl)-2–(2-(3,4-dimethoxyphenyl)-5,7-dimethoxy-4-oxo-4H-chromen-3-yloxy)acetamide] | 15.4 ± 4.2 µM | 220 to 222 °C | –
16 | COc1cc(OC)cc(-c2nnc(NC(=O)COc3c(-c4ccc(OC)c(OC)c4)oc4cc(OC)cc(OC)c4c3=O)o2)c1 [B26, N-(5–(3,5-dimethoxyphenyl)-1,3,4-oxadiazol-2-yl)-2–(2-(3,4-dimethoxyphenyl)-5,7-dimethoxy-4-oxo-4H-chromen-3-yloxy)acetamide] | 3.99 ± 0.85 µM | 200 to 202 °C | –
17 | COc1cc(OC)c2c(=O)c(OCC(=O)Nc3nnc(-c4cccc(C(F)(F)F)c4)o3)c(-c3cc(OC)c(OC)c(OC)c3)oc2c1 [A17, 2–(5,7-dimethoxy-4-oxo-2–(3,4,5-trimethoxyphenyl)-4H-chromen-3-yloxy)-N-(5–(3-(trifluoromethyl)phenyl)-1,3,4-oxadiazol-2-yl)acetamide] | 4.11 ± 0.62 µM | 220 to 222 °C | –
18 | COc1cc(OC)c2c(=O)c(OCC(=O)Nc3nnc(-c4cccc(Br)c4)o3)c(-c3cc(OC)c(OC)c(OC)c3)oc2c1 [A9, N-(5–(3-bromophenyl)-1,3,4-oxadiazol-2-yl)-2–(5,7-dimethoxy-4-oxo-2–(3,4,5-trimethoxyphenyl)-4H-chromen-3-yloxy)acetamide] | 2.01 ± 0.39 µM | 202 to 204 °C | –
19 | COc1cc(OC)c2c(=O)c(OCC(=O)Nc3nnc(-c4ccc(OC(F)(F)F)cc4)o3)c(-c3ccc(OC)c(OC)c3)oc2c1 [B19, 2–(2-(3,4-dimethoxyphenyl)-5,7-dimethoxy-4-oxo-4H-chromen-3-yloxy)-N-(5–(4-(trifluoromethoxy)phenyl)-1,3,4-oxadiazol-2-yl)acetamide] | 1.77 ± 0.6 µM | 217 to 219 °C | –
20 | COc1cc(OC)c2c(=O)c(OCC(=O)Nc3nnc(-c4cccc(Br)c4)o3)c(-c3ccc(OC)c(OC)c3)oc2c1 [B9, N-(5–(3-bromophenyl)-1,3,4-oxadiazol-2-yl)-2–(2-(3,4-dimethoxyphenyl)-5,7-dimethoxy-4-oxo-4H-chromen-3-yloxy)acetamide] | 2.9 ± 0.45 µM | 204 to 206 °C | –
21 | C/C(=C\C(=O)Nc1ccccc1C(=O)O)c1ccc2ccccc2c1 [BIBR1532, reference compound] | – | – | IC50 [1, 12]: 57.58 ± 0.21 µM; IC50 [2, 12]: > 100 µM; IC50 [3, 12]: > 100 µM; IC50 [4, 12]: > 100 µM; IC50 [5, 12]: > 100 µM
22 | COc1cc(OC)c2c(=O)c(OCC(=O)Nc3nnc(-c4ccccc4Cl)o3)c(-c3ccc(OC)c(OC)c3)oc2c1 [B7, N-(5–(2-chlorophenyl)-1,3,4-oxadiazol-2-yl)-2–(2-(3,4-dimethoxyphenyl)-5,7-dimethoxy-4-oxo-4H-chromen-3-yloxy)acetamide] | 24.3 ± 2.7 µM | 221 to 223 °C | –
23 | COc1cc(OC)c2c(=O)c(OCC(=O)Nc3nnc(-c4ccccc4[N+](=O)[O-])o3)c(-c3cc(OC)c(OC)c(OC)c3)oc2c1 [A15, 2–(5,7-dimethoxy-4-oxo-2–(3,4,5-trimethoxyphenyl)-4H-chromen-3-yloxy)-N-(5–(2-nitrophenyl)-1,3,4-oxadiazol-2-yl)acetamide] | 6.98 ± 0.96 µM | 204 to 206 °C | –
24 | COc1cc(OC)c2c(=O)c(OCC(=O)Nc3nnc(-c4cccc(C)c4)o3)c(-c3cc(OC)c(OC)c(OC)c3)oc2c1 [A12, 2–(5,7-dimethoxy-4-oxo-2–(3,4,5-trimethoxyphenyl)-4H-chromen-3-yloxy)-N-(5-m-tolyl-1,3,4-oxadiazol-2-yl)acetamide] | 15.3 ± 2.85 µM | 197 to 199 °C | –
